ChEMBL document CHEMBL3286195, “Discovery of (10R)-7-amino-12-fluoro-2,10,16-trimethyl-15-oxo-10,15,16,17-tetrahydro-2H-8,4-(metheno)pyrazolo[4,3-h][2,5,11]-benzoxadiazacyclotetradecine-3-carbonitrile (PF-06463922), a macrocyclic inhibitor of anaplastic lymphoma kinase (ALK) and c-ros oncogene 1 (ROS1) with preclinical brain …” (J Med Chem, 2014)
Values belong to the compound of their own block, whether it stands above or below them.

Tests used:
in vitro = conditions: human, liver microsomes
Description: Apparent total intrinsic clearance in human liver microsomes

physchem = conditions: octanol/water, pH 7.4
[1] = target: ALK tyrosine kinase receptor (Homo sapiens, UniProt Q9UM73, L1196M)
[2] = target: ALK tyrosine kinase receptor (Homo sapiens, UniProt Q9UM73)
MDR1 = test: in vitro; conditions: dog, MDCK-MDR1, pH 7.4
Description: Efflux ratio of permeability from basolateral to apical side to apical to basolateral side of MDCK cells expressing MDR1 at pH 7.4

[3] = target: BDNF/NT-3 growth factors receptor (Homo sapiens, UniProt Q16620)
BDNF/NT-3 growth factors receptor, sequence (Q16620 whole entry): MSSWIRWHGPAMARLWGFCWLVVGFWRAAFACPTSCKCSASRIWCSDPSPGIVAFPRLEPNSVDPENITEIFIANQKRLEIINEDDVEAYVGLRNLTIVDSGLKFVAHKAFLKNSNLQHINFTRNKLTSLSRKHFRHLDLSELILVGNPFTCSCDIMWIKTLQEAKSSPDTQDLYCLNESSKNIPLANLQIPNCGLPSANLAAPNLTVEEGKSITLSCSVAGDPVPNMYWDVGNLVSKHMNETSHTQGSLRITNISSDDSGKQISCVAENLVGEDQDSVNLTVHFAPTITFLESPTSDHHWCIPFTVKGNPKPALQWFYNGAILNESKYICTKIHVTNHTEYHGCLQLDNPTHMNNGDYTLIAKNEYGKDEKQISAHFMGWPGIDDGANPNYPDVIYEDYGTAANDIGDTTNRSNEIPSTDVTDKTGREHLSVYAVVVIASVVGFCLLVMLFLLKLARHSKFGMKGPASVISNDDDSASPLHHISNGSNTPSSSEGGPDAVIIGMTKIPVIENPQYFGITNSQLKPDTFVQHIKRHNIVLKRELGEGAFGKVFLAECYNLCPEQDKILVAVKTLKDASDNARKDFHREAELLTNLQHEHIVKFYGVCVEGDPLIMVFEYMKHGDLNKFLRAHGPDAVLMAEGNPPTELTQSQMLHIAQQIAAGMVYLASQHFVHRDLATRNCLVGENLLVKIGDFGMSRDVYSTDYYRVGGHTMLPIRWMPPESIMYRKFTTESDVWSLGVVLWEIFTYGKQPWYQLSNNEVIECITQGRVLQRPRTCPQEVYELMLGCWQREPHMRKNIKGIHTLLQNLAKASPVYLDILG
Description: Inhibition of TRKB (unknown origin) by off-chip mobility shift assay

[4] = Volume of distribution at steady state in rat at 1 mg/kg, iv qd; assay type: ADME, organism-based; set-up: dose 1 mg/kg, route intravenous; conditions: in vivo, read-out: Vdss
[5] = target: High affinity nerve growth factor receptor (Homo sapiens, UniProt P04629); test: Inhibition of […] (unknown origin) by TR-FRET-based Z'-LYTE assay
High affinity nerve growth factor receptor, sequence (P04629 whole entry): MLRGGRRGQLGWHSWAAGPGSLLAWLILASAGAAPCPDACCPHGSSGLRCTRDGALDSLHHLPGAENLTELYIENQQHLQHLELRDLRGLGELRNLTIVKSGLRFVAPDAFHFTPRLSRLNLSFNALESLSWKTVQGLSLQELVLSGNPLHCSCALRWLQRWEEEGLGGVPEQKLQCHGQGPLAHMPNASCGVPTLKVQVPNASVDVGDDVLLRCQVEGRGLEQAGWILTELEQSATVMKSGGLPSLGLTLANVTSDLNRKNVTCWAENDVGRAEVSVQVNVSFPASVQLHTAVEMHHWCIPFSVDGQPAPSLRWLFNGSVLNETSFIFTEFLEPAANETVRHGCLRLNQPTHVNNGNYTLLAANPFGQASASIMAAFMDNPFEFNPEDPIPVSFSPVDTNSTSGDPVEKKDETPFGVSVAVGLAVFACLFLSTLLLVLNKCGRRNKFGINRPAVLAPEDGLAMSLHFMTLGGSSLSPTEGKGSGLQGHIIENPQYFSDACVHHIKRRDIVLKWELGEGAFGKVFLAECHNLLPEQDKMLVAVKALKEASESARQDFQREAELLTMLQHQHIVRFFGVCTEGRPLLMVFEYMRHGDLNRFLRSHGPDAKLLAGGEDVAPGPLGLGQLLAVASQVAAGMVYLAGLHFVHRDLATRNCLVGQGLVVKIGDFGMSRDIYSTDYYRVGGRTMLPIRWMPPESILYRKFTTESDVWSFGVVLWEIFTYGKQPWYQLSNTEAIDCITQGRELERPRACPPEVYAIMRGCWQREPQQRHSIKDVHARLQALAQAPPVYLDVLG

[6] = AUC in rat CSF at 10 mg/kg, po; assay type: ADME, organism-based, Plasma; set-up: dose 10 mg/kg, route oral
[7] = AUC (infinity) in rat at 1 mg/kg, iv qd; assay type: ADME, organism-based; set-up: time infinity, dose 1 mg/kg, route intravenous; conditions: plasma
[8] = target: NT-3 growth factor receptor (Homo sapiens, UniProt Q16288)
NT-3 growth factor receptor, sequence (Q16288 whole entry): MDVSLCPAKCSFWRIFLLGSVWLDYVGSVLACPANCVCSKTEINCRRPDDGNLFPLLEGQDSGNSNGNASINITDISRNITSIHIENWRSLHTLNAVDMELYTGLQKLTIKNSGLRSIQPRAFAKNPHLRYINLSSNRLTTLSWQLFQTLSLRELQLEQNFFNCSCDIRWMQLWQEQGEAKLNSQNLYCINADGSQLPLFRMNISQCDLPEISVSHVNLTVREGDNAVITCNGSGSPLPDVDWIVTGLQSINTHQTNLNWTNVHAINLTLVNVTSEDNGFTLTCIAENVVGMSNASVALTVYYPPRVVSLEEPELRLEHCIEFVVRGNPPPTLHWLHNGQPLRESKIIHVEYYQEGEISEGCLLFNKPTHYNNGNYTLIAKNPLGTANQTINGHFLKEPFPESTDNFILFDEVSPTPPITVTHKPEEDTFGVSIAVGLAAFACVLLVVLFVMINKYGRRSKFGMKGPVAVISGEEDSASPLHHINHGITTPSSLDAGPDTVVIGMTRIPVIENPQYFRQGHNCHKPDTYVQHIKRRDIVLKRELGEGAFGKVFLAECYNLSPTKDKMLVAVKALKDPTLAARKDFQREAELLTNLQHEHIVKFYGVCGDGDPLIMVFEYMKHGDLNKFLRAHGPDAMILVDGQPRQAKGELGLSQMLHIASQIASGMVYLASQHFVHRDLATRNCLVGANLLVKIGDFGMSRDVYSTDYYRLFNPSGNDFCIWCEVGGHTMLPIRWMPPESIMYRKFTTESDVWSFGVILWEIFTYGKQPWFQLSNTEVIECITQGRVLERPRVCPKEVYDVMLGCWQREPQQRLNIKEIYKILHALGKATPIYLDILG
Description: Inhibition of NRTK3 (unknown origin) by TR-FRET-based Z'-LYTE assay

Brain = test: fAUC in rat brain at 10 mg/kg, po; assay type: ADME, organism-based; set-up: dose 10 mg/kg, route oral; conditions: in vivo
[9] = fAUC in rat CSF at 10 mg/kg, po; assay type: ADME, organism-based, Cerebrospinal fluid; set-up: dose 10 mg/kg, route oral; conditions: in vivo
[10] = Cmax in rat at 10 mg/kg, po qd; assay type: ADME, organism-based; set-up: dose 10 mg/kg, route oral; conditions: in vivo
[11] = target: Tyrosine-protein kinase Fer (Homo sapiens, UniProt P16591); test: Inhibition of FER (unknown origin) by TR-FRET-based Z'-LYTE assay
Activated CDC42 kinase 1 = Activated CDC42 kinase 1 (Homo sapiens, UniProt Q07912)
Description: Inhibition of TNK2 (unknown origin) by TR-FRET-based Z'-LYTE assay

Plasma [12] = test: fAUC in rat plasma at 10 mg/kg, po; assay type: ADME, organism-based; set-up: dose 10 mg/kg, route oral; conditions: in vivo
Plasma [13] = test: Average plasma concentration in rat at 10 mg/kg, po qd; assay type: ADME, organism-based; set-up: dose 10 mg/kg, route oral; conditions: in vivo
[14] = target: Tyrosine-protein kinase Fes/Fps (Homo sapiens, UniProt P07332); test: Inhibition of FES (unknown origin) by TR-FRET-based Z'-LYTE assay
Tyrosine-protein kinase Fes/Fps, sequence (P07332 whole entry): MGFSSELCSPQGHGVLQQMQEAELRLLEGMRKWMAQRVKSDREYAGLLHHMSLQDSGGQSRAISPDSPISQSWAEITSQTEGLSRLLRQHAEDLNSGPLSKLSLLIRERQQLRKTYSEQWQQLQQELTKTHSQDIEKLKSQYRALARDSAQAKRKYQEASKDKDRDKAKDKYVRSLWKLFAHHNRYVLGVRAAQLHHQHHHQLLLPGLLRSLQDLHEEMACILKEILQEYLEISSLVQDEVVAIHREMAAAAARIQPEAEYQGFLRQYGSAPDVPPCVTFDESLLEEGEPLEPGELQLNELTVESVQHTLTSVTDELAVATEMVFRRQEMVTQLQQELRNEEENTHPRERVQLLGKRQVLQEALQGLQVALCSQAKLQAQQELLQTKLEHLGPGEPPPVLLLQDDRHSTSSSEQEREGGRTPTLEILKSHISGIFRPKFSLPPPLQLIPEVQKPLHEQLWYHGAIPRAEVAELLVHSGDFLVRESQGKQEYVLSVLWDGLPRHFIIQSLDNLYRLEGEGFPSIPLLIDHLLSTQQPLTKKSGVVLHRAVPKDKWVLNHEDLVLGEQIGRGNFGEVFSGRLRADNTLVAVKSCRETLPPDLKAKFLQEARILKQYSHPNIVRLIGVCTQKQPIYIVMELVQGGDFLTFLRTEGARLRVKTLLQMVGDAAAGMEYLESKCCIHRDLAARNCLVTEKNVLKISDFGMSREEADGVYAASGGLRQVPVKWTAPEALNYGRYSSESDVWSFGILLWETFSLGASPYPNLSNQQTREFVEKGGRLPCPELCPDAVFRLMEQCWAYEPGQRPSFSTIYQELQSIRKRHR

[15] = Half life in rat at 1 mg/kg, iv qd; assay type: ADME, organism-based; set-up: dose 1 mg/kg, route intravenous; conditions: in vivo
[16] = Fraction unbound in rat plasma at 2.4 uM; assay type: ADME, cell-free
[17] = Plasma clearance in rat at 1 mg/kg, iv qd; assay type: ADME, organism-based; set-up: dose 1 mg/kg, route intravenous
[18] = Oral bioavailability in rat at 10 mg/kg qd; assay type: ADME, organism-based; conditions: in vivo
[19] = Tmax in rat at 10 mg/kg, po qd; assay type: ADME, organism-based; set-up: dose 10 mg/kg, route oral; conditions: in vivo
[20] = AUC in rat brain at 10 mg/kg, po; assay type: ADME, organism-based; set-up: dose 10 mg/kg, route oral
[21] = target: Leukocyte tyrosine kinase receptor (Homo sapiens, UniProt P29376); test: Inhibition of LTK (unknown origin) by TR-FRET-based Z'-LYTE assay
[22] = AUC (0 to 24 hrs) in rat at 10 mg/kg, po qd; assay type: ADME, organism-based; set-up: time < 24 hr, dose 10 mg/kg, route oral; conditions: plasma
[23] = AUC in rat plasma at 10 mg/kg, po; assay type: ADME, organism-based; set-up: dose 10 mg/kg, route oral
[24] = Fraction unbound in rat brain at 2.4 uM; assay type: ADME, tissue-based
[25] = target: Protein-tyrosine kinase 2-beta (Homo sapiens, UniProt Q14289)
Description: Inhibition of PTK2B (unknown origin) by TR-FRET-based Z'-LYTE assay

Rattus norvegicus = test: fCmax in rat at 10 mg/kg, po qd; assay type: ADME, organism-based; set-up: dose 10 mg/kg, route oral; conditions: in vivo
[26] = target: Tyrosine-protein kinase FRK (Homo sapiens, UniProt P42685); test: Inhibition of FRK (unknown origin) by TR-FRET-based Z'-LYTE assay
Tyrosine-protein kinase FRK, sequence (P42685 whole entry): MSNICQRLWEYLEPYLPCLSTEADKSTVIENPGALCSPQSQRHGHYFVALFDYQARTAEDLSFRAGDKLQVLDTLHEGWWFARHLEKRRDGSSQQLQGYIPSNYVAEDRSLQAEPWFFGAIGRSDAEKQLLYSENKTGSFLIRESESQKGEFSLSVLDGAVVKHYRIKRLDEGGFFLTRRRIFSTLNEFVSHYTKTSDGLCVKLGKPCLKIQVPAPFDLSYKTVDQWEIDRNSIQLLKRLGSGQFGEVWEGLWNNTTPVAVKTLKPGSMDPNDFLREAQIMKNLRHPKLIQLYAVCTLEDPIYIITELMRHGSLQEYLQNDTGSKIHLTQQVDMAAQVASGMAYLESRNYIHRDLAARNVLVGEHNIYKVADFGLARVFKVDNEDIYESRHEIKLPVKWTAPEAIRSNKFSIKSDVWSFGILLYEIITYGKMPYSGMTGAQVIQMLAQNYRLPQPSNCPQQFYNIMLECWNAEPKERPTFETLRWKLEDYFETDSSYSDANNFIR

Focal adhesion kinase 1 = Focal adhesion kinase 1 (Homo sapiens, UniProt Q05397)
Focal adhesion kinase 1, sequence (Q05397 whole entry): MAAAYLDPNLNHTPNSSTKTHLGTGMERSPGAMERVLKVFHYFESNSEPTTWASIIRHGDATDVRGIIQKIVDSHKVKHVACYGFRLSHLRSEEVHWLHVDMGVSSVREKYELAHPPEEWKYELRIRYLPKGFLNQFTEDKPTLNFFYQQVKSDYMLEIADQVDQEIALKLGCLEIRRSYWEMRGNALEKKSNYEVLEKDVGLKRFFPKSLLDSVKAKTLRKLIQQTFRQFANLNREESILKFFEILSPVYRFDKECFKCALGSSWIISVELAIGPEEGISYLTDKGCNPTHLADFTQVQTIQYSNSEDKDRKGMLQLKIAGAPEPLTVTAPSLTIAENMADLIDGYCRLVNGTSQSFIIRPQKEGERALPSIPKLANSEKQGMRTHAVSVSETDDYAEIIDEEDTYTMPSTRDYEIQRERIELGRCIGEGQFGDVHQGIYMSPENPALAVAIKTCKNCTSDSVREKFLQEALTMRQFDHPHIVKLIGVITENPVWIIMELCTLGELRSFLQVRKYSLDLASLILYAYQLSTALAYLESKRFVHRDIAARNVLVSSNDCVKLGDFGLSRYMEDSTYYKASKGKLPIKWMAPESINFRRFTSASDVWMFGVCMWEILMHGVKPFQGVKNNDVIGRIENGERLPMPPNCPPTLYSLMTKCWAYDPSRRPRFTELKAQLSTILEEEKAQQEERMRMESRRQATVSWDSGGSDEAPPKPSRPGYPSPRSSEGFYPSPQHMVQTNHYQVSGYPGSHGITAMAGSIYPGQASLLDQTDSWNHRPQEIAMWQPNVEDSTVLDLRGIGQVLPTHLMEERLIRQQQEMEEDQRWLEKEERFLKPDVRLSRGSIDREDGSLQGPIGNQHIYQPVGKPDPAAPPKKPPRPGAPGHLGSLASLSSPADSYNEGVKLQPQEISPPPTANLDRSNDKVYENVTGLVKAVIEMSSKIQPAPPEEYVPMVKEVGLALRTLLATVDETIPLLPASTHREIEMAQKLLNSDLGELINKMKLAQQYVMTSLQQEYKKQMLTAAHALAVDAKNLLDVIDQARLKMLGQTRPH
Description: Inhibition of PTK2 (unknown origin) by TR-FRET-based Z'-LYTE assay

CLint scaled (in vitro): 8 mL/min/kg
Compound: C[C@@H](Oc1cc(-c2cnnn2C)cnc1N)c1cc(F)ccc1-n1nccn1

CLint scaled (in vitro): 13 mL/min/kg
Compound: Cc1nc([C@](C)(O)CO)sc1-c1cnc(N)c(O[C@H](C)c2cc(F)ccc2-n2nccn2)c1

CLint scaled (in vitro): 66 mL/min/kg
Compound: Cc1nn(C)cc1-c1cnc(N)c(O[C@H](C)c2cc(F)ccc2-n2nccn2)c1

logD (physchem): 2.4
CLint scaled (in vitro): 25 mL/min/kg
Compound: COc1ccc(F)cc1[C@@H](C)Oc1cc(-c2cnnn2C)cnc1N

logD (physchem): 2.1
CLint scaled (in vitro): 28 mL/min/kg
Compound: CNC(=O)c1ccc(F)cc1[C@@H](C)Oc1cc(-c2cn(C)nc2C)cnc1N

Compound: Cc1nn(C)cc1-c1cnc(N)c(O[C@H](C)c2cc(F)ccc2C(=O)N(C)C)c1
Ki [1]: 310 nM
logD (physchem): 2.1
Ki [2]: 22 nM
efflux ratio (MDR1): 7.6
CLint scaled (in vitro): 58 mL/min/kg

logD (physchem): 4
CLint scaled (in vitro): 41 mL/min/kg
Compound: COc1ncccc1-c1cnc(N)c(O[C@H](C)c2cc(F)ccc2-n2nccn2)n1

logD (physchem): 3
CLint scaled (in vitro): 76 mL/min/kg
Compound: CNC(=O)c1ccc(F)cc1[C@@H](C)Oc1nc(-c2cccnc2OC)cnc1N

logD (physchem): 3.4
CLint scaled (in vitro): 10 mL/min/kg
Compound: C[C@@H](Oc1cc(-c2cccc(S(C)(=O)=O)c2)cnc1N)c1cc(F)ccc1-n1nccn1

logD (physchem): 3
Compound: N#Cc1[nH]nc2c1-c1cnc(N)c(c1)OCc1cc(F)ccc1OCC2

logD (physchem): 3.6
Compound: N#Cc1[nH]nc2c1-c1cnc(N)c(c1)OCc1cc(F)ccc1OCCC2

logD (physchem): 3.4
Compound: Cn1ncc2c1-c1cnc(N)c(c1)OCc1cc(F)ccc1OCCC2

logD (physchem): 3.1
Compound: Cn1ncc2c1-c1cnc(N)c(c1)OCc1cc(F)ccc1OCCCC2

logD (physchem): 3.3
Compound: C[C@H]1Oc2cc(cnc2N)-c2c(nn(C)c2C#N)CCOc2ccc(F)cc21

logD (physchem): 3.8
Compound: C[C@H]1Oc2cc(cnc2N)-c2c(nn(C)c2C#N)CCCOc2ccc(F)cc21

logD (physchem): 2.2
Ki [3]: 0.5 nM
CLint scaled (in vitro): 8.6 mL/min/kg
Compound: Cc1nn(C)c2c1-c1cnc(N)c(c1)O[C@H](C)c1cc(F)ccc1C(=O)N(C)C2

logD (physchem): 2.2
CLint scaled (in vitro): 8 mL/min/kg
Compound: Cc1nn(C)c2c1-c1cnc(N)c(c1)O[C@@H](C)c1cc(F)ccc1C(=O)N(C)C2

logD (physchem): 2
CLint scaled (in vitro): 8.4 mL/min/kg
Compound: Cc1nn(C)c2c1-c1cnc(N)c(c1)OCc1cc(F)ccc1C(=O)N(C)C2

logD (physchem): 2.5
CLint scaled (in vitro): 8 mL/min/kg
Compound: Cc1nn(C)c2c1-c1cnc(N)c(n1)O[C@H](C)c1cc(F)ccc1C(=O)N(C)C2

logD (physchem): 2.5
CLint scaled (in vitro): 9.7 mL/min/kg
Compound: Cc1nn(C)c2c1-c1cnc(N)c(n1)O[C@@H](C)c1cc(F)ccc1C(=O)N(C)C2

logD (physchem): 2.4
CLint scaled (in vitro): 8.3 mL/min/kg
Compound: COc1nn(C)c2c1-c1cnc(N)c(c1)O[C@H](C)c1cc(F)ccc1C(=O)N(C)C2

logD (physchem): 2.7
CLint scaled (in vitro): 23.5 mL/min/kg
Compound: COc1nn(C)c2c1-c1cnc(N)c(n1)O[C@H](C)c1cc(F)ccc1C(=O)N(C)C2

logD (physchem): 1.8
CLint scaled (in vitro): 9.1 mL/min/kg
Compound: C[C@H]1Oc2cc(cnc2N)-c2cc(S(C)(=O)=O)ccc2CN(C)C(=O)c2ccc(F)cc21

logD (physchem): 2.2
CLint scaled (in vitro): 8 mL/min/kg
Compound: C[C@H]1Oc2nc(cnc2N)-c2cc(S(C)(=O)=O)ccc2CN(C)C(=O)c2ccc(F)cc21

logD (physchem): 2.9
Ki [3]: 0.4 nM
CLint scaled (in vitro): 14.6 mL/min/kg
Compound: C[C@H]1Oc2cc(cnc2N)-c2c(C3CC3)nn(C)c2CN(C)C(=O)c2ccc(F)cc21

Compound: Cc1cnc2nc3c(n2c1)-c1cnc(N)c(c1)O[C@H](C)c1cc(F)ccc1C(=O)N(C)C3
logD (physchem): 1.7
efflux ratio (MDR1): 20.2
Ki [3]: 77 nM
CLint scaled (in vitro): < 8 mL/min/kg

logD (physchem): 2.4
Ki [3]: 65 nM
CLint scaled (in vitro): < 8 mL/min/kg
Compound: C[C@H]1Oc2nc(cnc2N)-c2c(nc3ccc(C#N)cn23)CN(C)C(=O)c2ccc(F)cc21

Vd [4]: 2.7 L/kg
IC50 [5]: 24 nM
AUC [6]: 3.48 µM·h
logD (physchem): 2.3
AUC(0-inf) [7]: 1150 ng·h/mL
IC50 [8]: 46 nM
fAUC (Brain): 2.355 µM·h
fAUC [9]: 3.475 µM·h
Cmax [10]: 1730 ng/mL
IC50 [11]: 3.3 nM
IC50 (Activated CDC42 kinase 1): 17 nM
fAUC (Plasma [12]): 11.052 µM·h
Cave (Plasma [13]): 551 nM
IC50 [14]: 6 nM
half-life [15]: 2.7 h
fraction unbound at 2.4 µM [16]: 0.36
clearance [17]: 15.5 mL/min/kg
bioavailability [18]: 100%
Tmax [19]: 1.3 h
AUC [20]: 19.6 µM·h
IC50 [21]: 2.7 nM
AUC at 24 h [22]: 14900 ng·h/mL
AUC [23]: 30.7 µM·h
fraction unbound at 2.4 µM [24]: 0.12
IC50 [25]: 14 nM
fCmax (Rattus norvegicus): 1530 nM
IC50 [26]: 53 nM
IC50 (Focal adhesion kinase 1): 17 nM
CLint scaled (in vitro): < 8 mL/min/kg
Compound: C[C@H]1Oc2cc(cnc2N)-c2c(nn(C)c2C#N)CN(C)C(=O)c2ccc(F)cc21 [LORLATINIB]
